From patent publication US20090298834A1, “4-(AMINOMETHYL)CYCLOHEXANAMINE DERIVATIVES AS CALCIUM CHANNEL BLOCKERS” (priority 2008, published 2009)

Tests used:
[1] = target: T1, human α1H T-type channels (Homo sapiens, UniProt O95180); test: T-type calcium channel block, whole cell patch clamp (α1H); format: cell-based; details: HEK cells stably expressing human α1H; mainly non-inactivated protocol; values above 10 μM represented as 10 μM
T1 construct: expressed in transfected cells; host or cells: HEK 293
T1 sequence (O95180 whole entry): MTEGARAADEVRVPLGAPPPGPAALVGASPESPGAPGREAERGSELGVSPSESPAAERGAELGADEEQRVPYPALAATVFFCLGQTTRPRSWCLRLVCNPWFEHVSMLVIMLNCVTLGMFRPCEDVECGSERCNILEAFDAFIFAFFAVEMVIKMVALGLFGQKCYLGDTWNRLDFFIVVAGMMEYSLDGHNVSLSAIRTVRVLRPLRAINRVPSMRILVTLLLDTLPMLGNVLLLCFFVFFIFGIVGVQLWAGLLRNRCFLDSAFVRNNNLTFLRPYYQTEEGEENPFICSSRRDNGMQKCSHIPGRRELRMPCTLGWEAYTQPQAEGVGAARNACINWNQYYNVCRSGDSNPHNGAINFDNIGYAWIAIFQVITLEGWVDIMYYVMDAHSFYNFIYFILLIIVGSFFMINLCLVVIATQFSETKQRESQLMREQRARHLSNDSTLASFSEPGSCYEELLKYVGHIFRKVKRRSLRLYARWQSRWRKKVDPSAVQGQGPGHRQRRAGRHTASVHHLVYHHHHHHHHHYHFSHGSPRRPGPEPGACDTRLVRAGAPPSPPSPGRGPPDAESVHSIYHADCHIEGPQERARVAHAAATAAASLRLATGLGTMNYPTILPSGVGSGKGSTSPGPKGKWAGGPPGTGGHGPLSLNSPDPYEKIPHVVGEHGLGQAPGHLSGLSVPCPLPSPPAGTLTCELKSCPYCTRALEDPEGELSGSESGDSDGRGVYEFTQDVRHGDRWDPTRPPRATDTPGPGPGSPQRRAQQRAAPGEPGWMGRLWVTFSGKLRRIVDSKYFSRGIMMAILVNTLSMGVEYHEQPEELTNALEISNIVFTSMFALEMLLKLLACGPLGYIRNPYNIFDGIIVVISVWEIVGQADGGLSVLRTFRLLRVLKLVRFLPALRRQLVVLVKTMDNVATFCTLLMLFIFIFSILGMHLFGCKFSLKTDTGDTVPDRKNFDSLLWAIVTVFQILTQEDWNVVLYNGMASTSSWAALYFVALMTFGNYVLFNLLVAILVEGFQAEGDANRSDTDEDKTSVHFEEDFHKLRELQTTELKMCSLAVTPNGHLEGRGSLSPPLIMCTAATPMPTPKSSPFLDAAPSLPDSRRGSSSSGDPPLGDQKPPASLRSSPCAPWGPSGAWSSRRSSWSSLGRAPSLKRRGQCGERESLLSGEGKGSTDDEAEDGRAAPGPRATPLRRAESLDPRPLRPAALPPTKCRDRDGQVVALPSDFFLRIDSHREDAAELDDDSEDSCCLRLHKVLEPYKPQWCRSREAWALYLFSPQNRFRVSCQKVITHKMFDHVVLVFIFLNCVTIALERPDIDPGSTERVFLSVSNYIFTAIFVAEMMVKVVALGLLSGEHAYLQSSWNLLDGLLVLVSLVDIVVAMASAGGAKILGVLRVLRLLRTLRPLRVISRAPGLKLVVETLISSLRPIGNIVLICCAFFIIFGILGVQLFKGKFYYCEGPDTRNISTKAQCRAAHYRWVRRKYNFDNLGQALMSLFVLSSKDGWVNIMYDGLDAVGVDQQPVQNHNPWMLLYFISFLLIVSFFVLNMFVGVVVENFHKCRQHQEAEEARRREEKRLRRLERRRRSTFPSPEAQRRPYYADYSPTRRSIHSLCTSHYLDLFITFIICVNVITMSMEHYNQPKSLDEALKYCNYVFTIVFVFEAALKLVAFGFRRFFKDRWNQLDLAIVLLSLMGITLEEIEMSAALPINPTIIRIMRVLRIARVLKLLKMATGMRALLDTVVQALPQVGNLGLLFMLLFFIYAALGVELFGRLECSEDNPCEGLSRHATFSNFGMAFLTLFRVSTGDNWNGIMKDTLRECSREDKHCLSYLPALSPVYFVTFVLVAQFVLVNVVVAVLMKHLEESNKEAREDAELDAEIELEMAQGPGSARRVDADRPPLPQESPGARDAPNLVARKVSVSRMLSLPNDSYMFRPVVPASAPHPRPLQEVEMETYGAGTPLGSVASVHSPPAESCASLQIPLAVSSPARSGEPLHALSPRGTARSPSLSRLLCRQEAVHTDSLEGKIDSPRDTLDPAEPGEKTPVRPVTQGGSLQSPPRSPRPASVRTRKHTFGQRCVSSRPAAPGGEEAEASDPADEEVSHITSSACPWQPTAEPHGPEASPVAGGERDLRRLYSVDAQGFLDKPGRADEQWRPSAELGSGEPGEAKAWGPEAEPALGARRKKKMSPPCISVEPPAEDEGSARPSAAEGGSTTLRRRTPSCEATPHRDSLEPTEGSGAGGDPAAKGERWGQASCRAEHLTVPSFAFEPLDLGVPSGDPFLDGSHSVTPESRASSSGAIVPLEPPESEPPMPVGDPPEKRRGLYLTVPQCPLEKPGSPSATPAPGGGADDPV
Protocol: (§1) T-type calcium channel blocking activity was assayed in human embryonic kidney cells, HEK 293, stably transfected with the T-type calcium channel subunits. Briefly, cells were cultured in Dulbecco's modified eagle medium (DMEM) supplemented with 10% fetal bovine serum, 200 U/ml penicillin and 0.2 mg/ml streptomycin at 37° C. with 5% CO2. At 85% confluency cells were split with 0.25% trypsin/1 mM EDTA and plated at 10% confluency on glass coverslips. At 12 hours the medium was replaced and the cells stably transfected using a standard calcium phosphate protocol and the appropriate calcium channel cDNA's. Fresh DMEM was supplied and the cells transferred to 28° C./5% CO2. Cells were incubated for 1 to 2 days prior to whole cell recording.
(§2) Standard patch-clamp techniques were employed to identify blockers of T-type currents. Briefly, previously described HEK cell lines stably expressing human α1G, α1H and α1I T-type channels were used for all the recordings (passage #: 4-20, 37° C., 5% CO2). Whole cell patch clamp experiments were performed using an Axopatch 200B amplifier (Axon Instruments, Burlingame, Calif.) linked to a personal computer equipped with pCLAMP software. Data were analyzed using Clampfit (Axon Instruments) and SigmaPlot 4.0 (Jandel Scientific). To obtain T-type currents, plastic dishes containing semi-confluent cells were positioned on the stage of a ZEISS AXIOVERT S100 microscope after replacing the culture medium with external solution (see below). Whole-cell patches were obtained using pipettes (borosilicate glass with filament, O.D.: 1.5 mm, I.D.: 0.86 mm, 10 cm length), fabricated on a SUTTER P-97 puller with resistance values of ˜5 MΩ (see below for internal solution).
(§3) In the non-inactivating protocol, the holding potential is set at −110 mV and with a pre-pulse at −100 mV for 1 second prior to the test pulse at −40 mV for 50 ms. In the inactivation protocol, the pre-pulse is at approximately −85 mV for 1 second, which inactivates about 15% of the T-type channels.
(§4) Test compounds were dissolved in external solution, 0.1-0.01% DMSO. After 10 min rest, they were applied by gravity close to the cell using a WPI microfil tubing. The “non-inactivated” pre-pulse was used to examine the resting block of a compound. The “inactivated” protocol was employed to study voltage-dependent block. However, the initial data shown below were mainly obtained using the non-inactivated protocol only. . IC50 values are shown for various compounds of the invention in Table 4 for the drug of interest. Values are shown in μM and values above 10 μM are simply represented as 10 μM.

[2] = target: T2, human α1G T-type channels (Homo sapiens, UniProt O43497); test: T-type calcium channel block, whole cell patch clamp (α1G); format: cell-based; details: HEK cells stably expressing human α1G; mainly non-inactivated protocol; values above 10 μM represented as 10 μM, values below 0.30 μM represented as 0.30 μM
T2 construct: expressed in transfected cells; host or cells: HEK 293
T2 sequence (O43497 whole entry): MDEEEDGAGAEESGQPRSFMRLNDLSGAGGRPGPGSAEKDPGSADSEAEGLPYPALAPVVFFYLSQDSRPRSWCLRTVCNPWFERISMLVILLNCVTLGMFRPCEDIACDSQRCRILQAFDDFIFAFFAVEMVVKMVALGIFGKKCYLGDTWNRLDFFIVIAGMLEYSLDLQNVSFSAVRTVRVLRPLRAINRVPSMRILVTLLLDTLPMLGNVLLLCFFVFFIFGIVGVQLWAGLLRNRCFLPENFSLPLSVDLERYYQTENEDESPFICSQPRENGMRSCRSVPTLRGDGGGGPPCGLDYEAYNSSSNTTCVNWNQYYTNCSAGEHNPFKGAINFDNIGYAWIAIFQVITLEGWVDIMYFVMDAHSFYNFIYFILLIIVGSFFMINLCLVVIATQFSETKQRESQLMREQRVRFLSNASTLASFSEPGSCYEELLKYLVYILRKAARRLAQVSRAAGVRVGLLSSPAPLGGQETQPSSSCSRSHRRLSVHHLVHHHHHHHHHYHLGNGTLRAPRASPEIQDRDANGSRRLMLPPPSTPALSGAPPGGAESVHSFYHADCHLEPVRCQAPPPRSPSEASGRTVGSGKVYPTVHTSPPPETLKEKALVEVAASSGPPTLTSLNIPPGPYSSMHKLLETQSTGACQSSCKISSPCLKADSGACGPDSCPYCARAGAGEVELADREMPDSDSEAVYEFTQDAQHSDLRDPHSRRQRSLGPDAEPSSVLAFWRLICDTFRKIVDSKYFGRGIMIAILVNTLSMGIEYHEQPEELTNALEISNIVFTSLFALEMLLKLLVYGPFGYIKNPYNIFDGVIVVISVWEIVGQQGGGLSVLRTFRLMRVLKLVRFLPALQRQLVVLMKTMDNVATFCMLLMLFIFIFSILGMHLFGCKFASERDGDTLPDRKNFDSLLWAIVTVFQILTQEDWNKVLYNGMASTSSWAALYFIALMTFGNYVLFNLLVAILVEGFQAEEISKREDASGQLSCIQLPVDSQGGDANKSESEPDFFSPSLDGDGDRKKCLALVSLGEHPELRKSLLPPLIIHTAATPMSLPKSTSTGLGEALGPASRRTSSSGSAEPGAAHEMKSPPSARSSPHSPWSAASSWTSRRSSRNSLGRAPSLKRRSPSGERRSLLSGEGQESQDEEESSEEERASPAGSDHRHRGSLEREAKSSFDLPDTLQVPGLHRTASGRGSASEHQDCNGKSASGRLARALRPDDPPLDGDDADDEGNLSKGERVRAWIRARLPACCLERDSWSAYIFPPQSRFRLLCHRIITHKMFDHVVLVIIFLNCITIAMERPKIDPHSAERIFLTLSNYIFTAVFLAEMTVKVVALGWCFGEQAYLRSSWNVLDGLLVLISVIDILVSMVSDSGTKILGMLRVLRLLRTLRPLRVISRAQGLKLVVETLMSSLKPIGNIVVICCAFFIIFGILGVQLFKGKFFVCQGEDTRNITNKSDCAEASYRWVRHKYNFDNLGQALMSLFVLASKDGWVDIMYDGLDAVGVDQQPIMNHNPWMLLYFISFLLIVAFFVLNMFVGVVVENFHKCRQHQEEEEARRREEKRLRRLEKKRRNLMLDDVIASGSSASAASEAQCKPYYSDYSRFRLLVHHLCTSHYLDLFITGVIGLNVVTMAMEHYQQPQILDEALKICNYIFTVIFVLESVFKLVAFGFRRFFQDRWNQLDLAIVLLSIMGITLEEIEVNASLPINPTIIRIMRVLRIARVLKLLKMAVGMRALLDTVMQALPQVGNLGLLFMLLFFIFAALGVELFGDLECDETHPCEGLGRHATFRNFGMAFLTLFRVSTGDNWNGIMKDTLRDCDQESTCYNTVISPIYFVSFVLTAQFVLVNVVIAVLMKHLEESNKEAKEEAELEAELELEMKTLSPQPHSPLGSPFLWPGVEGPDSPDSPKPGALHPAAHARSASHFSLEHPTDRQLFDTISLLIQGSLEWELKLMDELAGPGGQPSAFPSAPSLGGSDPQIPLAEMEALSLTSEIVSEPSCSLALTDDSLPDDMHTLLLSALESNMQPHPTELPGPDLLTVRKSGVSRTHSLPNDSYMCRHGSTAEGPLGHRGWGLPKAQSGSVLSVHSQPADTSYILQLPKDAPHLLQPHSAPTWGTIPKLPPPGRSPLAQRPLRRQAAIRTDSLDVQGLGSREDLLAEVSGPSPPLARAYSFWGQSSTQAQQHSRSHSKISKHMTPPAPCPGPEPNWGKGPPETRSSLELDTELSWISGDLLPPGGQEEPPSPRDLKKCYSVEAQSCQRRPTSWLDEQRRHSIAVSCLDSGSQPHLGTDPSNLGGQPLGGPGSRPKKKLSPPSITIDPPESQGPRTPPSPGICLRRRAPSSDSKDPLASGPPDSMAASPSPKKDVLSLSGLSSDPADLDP
Protocol: as §1, §2, §3, §4

SMILES | IC50 [1] [nM] | IC50 [2] [nM]
CC(C)(C)C(O)CN[C@H]1CC[C@@H](CNC(=O)c2cc(C(F)(F)F)cc(C(F)(F)F)c2)CC1 (stereo partly shown) [Compound 1] | 580 | 390
CC(C)(C)C(O)CN[C@H]1CC[C@@H](CNC(=O)c2cc(F)cc(C(F)(F)F)c2)CC1 (stereo partly drawn) [Compound 2, 3-fluoro-N-((cis-4-(2-hydroxy-3,3-dimethylbutylamino)cyclohexyl)methyl)-5-(trifluoromethyl)benzamide] | 550 | 450
CC(C)(C)C(O)CN[C@H]1CC[C@H](CNC(=O)c2cc(C(F)(F)F)cc(C(F)(F)F)c2)CC1 (stereo partly drawn) [Compound 3, N-((trans-4-(2-hydroxy-3,3-dimethylbutylamino)cyclohexyl)methyl)-3,5-bis(trifluoromethyl)benzamide] | 1020 | 470
CC(C)(O)CN[C@H]1CC[C@H](CNC(=O)c2cc(C(F)(F)F)cc(C(F)(F)F)c2)CC1 [Compound 4, N-((trans-4-(2-hydroxy-2-methylpropylamino)cyclohexyl)methyl)-3,5-bis(trifluoromethyl)benzamide] | 4430 | 4540
O=C(NC[C@H]1CC[C@@H](NCc2ccccc2O)CC1)c1cc(C(F)(F)F)cc(C(F)(F)F)c1 [Compound 7, N-((cis-4-(2-hydroxybenzylamino)cyclohexyl)methyl)-3,5-bis(trifluoromethyl)benzamide] | 1540 | ≤ 300
O=C(NC[C@H]1CC[C@@H](NCc2cccnc2F)CC1)c1cc(C(F)(F)F)cc(C(F)(F)F)c1 [Compound 8, N-((cis-4-((2-fluoropyridin-3-yl)methylamino)cyclohexyl)methyl)-3,5-bis(trifluoromethyl)benzamide] | 4840 | 3350
Cc1cccc(CN[C@H]2CC[C@@H](CNC(=O)c3cc(C(F)(F)F)cc(C(F)(F)F)c3)CC2)c1O [Compound 9, N-((cis-4-(2-hydroxy-3-methylbenzylamino)cyclohexyl)methyl)-3,5-bis(trifluoromethyl)benzamide] | 710 | 850
COc1ccccc1CN[C@H]1CC[C@@H](CNC(=O)c2cc(C(F)(F)F)cc(C(F)(F)F)c2)CC1 [Compound 10, N-((cis-4-(2-methoxybenzylamino)cyclohexyl)methyl)-3,5-bis(trifluoromethyl)benzamide] | 320 | 470
COc1cccnc1CN[C@H]1CC[C@@H](CNC(=O)c2cc(C(F)(F)F)cc(C(F)(F)F)c2)CC1 [Compound 11, N-((cis-4-((3-methoxypyridin-2-yl)methylamino)cyclohexyl)methyl)-3,5-bis(trifluoromethyl)benzamide] | 2330 | 1570
O=C(NC[C@H]1CC[C@@H](NCc2c(F)cccc2Cl)CC1)c1cc(C(F)(F)F)cc(C(F)(F)F)c1 [Compound 13, N-((cis-4-(2-chloro-6-fluorobenzylamino)cyclohexyl)methyl)-3,5-bis(trifluoromethyl)benzamide] | 2830 | 460
COc1ccc(CN[C@H]2CC[C@@H](CNC(=O)c3cc(C(F)(F)F)cc(C(F)(F)F)c3)CC2)c(OC)c1 [Compound 14, N-((cis-4-(2,4-dimethoxybenzylamino)cyclohexyl)methyl)-3,5-bis(trifluoromethyl)benzamide] | 560 | ≤ 300

Next, values leading:

IC50 [1] [nM] | IC50 [2] [nM] | SMILES
1530 | 450 | CC(C)(C)[C@H](O)C(=O)NC1CCC(CC(=O)Nc2cc(C(F)(F)F)cc(C(F)(F)F)c2)CC1 (stereo in doubt) [Compound 108, (S)-N-((trans)-4-(2-(3,5-bis(trifluoromethyl)phenylamino)-2-oxoethyl)cyclohexyl)-2-hydroxy-3,3-dimethylbutanamide]
1650 | 780 | O=C(NC[C@H]1CC[C@@H](NCc2ccccc2O)CC1)c1cc(F)cc(C(F)(F)F)c1 [Compound 15, 3-fluoro-N-((cis-4-(2-hydroxybenzylamino)cyclohexyl)methyl)-5-(trifluoromethyl)benzamide]
≥ 10000 | 4440 | O=C(NC[C@H]1CC[C@@H](NCc2ncccc2O)CC1)c1cc(F)cc(C(F)(F)F)c1 [Compound 16, 3-fluoro-N-((cis-4-((3-hydroxypyridin-2-yl)methylamino)cyclohexyl)methyl)-5-(trifluoromethyl)benzamide]
4940 | 7730 | O=C(NC[C@H]1CC[C@@H](NCc2cccnc2F)CC1)c1cc(F)cc(C(F)(F)F)c1 [Compound 17, 3-fluoro-N-((cis-4-((2-fluoropyridin-3-yl)methylamino)cyclohexyl)methyl)-5-(trifluoromethyl)benzamide]
1370 | 460 | Cc1cccc(CN[C@H]2CC[C@@H](CNC(=O)c3cc(F)cc(C(F)(F)F)c3)CC2)c1O [Compound 18, 3-fluoro-N-((cis-4-(2-hydroxy-3-methylbenzylamino)cyclohexyl)methyl)-5-(trifluoromethyl)benzamide]
1010 | 530 | COc1ccccc1CN[C@H]1CC[C@@H](CNC(=O)c2cc(F)cc(C(F)(F)F)c2)CC1 [Compound 19, 3-fluoro-N-((cis-4-(2-methoxybenzylamino)cyclohexyl)methyl)-5-(trifluoromethyl)benzamide]
5350 | 3320 | COc1cccnc1CN[C@H]1CC[C@@H](CNC(=O)c2cc(F)cc(C(F)(F)F)c2)CC1 [Compound 20, 3-fluoro-N-((cis-4-((3-methoxypyridin-2-yl)methylamino)cyclohexyl)methyl)-5-(trifluoromethyl)benzamide]
4580 | 840 | O=C(NC[C@H]1CC[C@@H](NCc2cccc(F)c2O)CC1)c1cc(F)cc(C(F)(F)F)c1 [Compound 21, 3-fluoro-N-((cis-4-(3-fluoro-2-hydroxybenzylamino)cyclohexyl)methyl)-5-(trifluoromethyl)benzamide]
3080 | 990 | O=C(NC[C@H]1CC[C@@H](NCc2c(O)cccc2F)CC1)c1cc(F)cc(C(F)(F)F)c1 [Compound 22, 3-fluoro-N-((cis-4-(2-fluoro-6-hydroxybenzylamino)cyclohexyl)methyl)-5-(trifluoromethyl)benzamide]
2870 | 910 | O=C(NC[C@H]1CC[C@@H](NCc2c(F)cccc2Cl)CC1)c1cc(F)cc(C(F)(F)F)c1 [Compound 23, N-((cis-4-(2-chloro-6-fluorobenzylamino)cyclohexyl)methyl)-3-fluoro-5-(trifluoromethyl)benzamide]
590 | 340 | COc1ccc(CN[C@H]2CC[C@@H](CNC(=O)c3cc(F)cc(C(F)(F)F)c3)CC2)c(OC)c1 [Compound 24, N-((cis-4-(2,4-dimethoxybenzylamino)cyclohexyl)methyl)-3-fluoro-5-(trifluoromethyl)benzamide]
5370 |  | Cc1ccc(-c2csc(NC(=O)C[C@H]3CC[C@@H](NCC4(NC(=O)OC(C)(C)C)CCCC4)CC3)n2)cc1 [Compound 37]
7930 |  | Cc1ccc(-c2csc(NC(=O)C[C@H]3CC[C@@H](NCC(C)(C)NC(=O)OC(C)(C)C)CC3)n2)cc1 [Compound 38, tert-butyl 2-methyl-1-(cis-4-(2-oxo-2-(4-p-tolylthiazol-2-ylamino)ethyl)cyclohexylamino)propan-2-ylcarbamate]
440 |  | CC(C)(C)OC(=O)NCCN[C@H]1CC[C@@H](CNC(=O)c2cc(Cl)cc(C(F)(F)F)c2)CC1 [Compound 99, tert-butyl 2-(cis-4-((3-chloro-5-(trifluoromethyl)benzamido)methyl)cyclohexylamino)ethylcarbamate]
2080 |  | O=C(CC1CC1)NCCN[C@H]1CC[C@H](CNC(=O)c2cc(C(F)(F)F)cc(C(F)(F)F)c2)CC1 [Compound 103, N-((trans-4-(2-(2-cyclopropylacetamido)ethylamino)cyclohexyl)methyl)-3,5-bis(trifluoromethyl)benzamide]
6160 |  | O=C(NC[C@H]1CC[C@@H](N2CC(C(F)(F)F)(C(F)(F)F)OC2=O)CC1)c1cc(F)cc(C(F)(F)F)c1 [Compound 154, 3-fluoro-N-((cis-4-(2-oxo-5,5-bis(trifluoromethyl)oxazolidin-3-yl)cyclohexyl)methyl)-5-(trifluoromethyl)benzamide]
